Results from ChEMBL document CHEMBL1129687, “Antitumor activity of S-(p-bromobenzyl)glutathione diesters in vitro: a structure-activity study” (J Med Chem, 1996).

Assay: The growth inhibitory concentration of compound was determined by logistic regression of viable cell number on Human leukemia 60 cells
Type: functional, 60 cell

| Structure (SMILES) | GC50 [µM] |
| --- | --- |
| CCCOC(=O)CNC(=O)C(CSCc1ccc(Br)cc1)NC(=O)CCC(N)C(=O)OCCC (configuration not stated) | 7.8 |
| NC(CCC(=O)NC(CSCc1ccc(Br)cc1)C(=O)NCC(=O)OC1CCCC1)C(=O)OC1CCCC1 (configuration not stated) | 4.2 |
| NC(CCC(=O)NC(CSCc1ccc(Br)cc1)C(=O)NCC(=O)OC1CCCCC1)C(=O)OC1CCCCC1 (configuration not stated) | 29.2 |
| CCCCOC(=O)CNC(=O)C(CSCc1ccc(Br)cc1)NC(=O)CCC(N)C(=O)OCCCC (configuration not stated) | 18.5 |
| CC(C)OC(=O)CNC(=O)C(CSCc1ccc(Br)cc1)NC(=O)CCC(N)C(=O)OC(C)C (configuration not stated) | 19.6 |
| CCCCCOC(=O)CNC(=O)C(CSCc1ccc(Br)cc1)NC(=O)CCC(N)C(=O)OCCCCC (configuration not stated) | 22.2 |
| CCOC(=O)CNC(=O)C(CSCc1ccc(Br)cc1)NC(=O)CCC(N)C(=O)OCC (configuration not stated) | 8.3 |
